Results on 35 compounds are retold here after patent US11319315B2, “Cyclohexyl acid triazole azoles as LPA antagonists” (BRISTOL-MYERS SQUIBB COMPANY, priority 2017, dated 2022).

As usually defined, the IC50 is the concentration needed to halve the response being measured.

For one assay, the target named is T1, human LPA1 (Homo sapiens, UniProt Q92633).
T1 construct: expressed in transfected cells; host or cells: Chinese hamster ovary (CHO) cells
T1 sequence (Q92633 whole entry): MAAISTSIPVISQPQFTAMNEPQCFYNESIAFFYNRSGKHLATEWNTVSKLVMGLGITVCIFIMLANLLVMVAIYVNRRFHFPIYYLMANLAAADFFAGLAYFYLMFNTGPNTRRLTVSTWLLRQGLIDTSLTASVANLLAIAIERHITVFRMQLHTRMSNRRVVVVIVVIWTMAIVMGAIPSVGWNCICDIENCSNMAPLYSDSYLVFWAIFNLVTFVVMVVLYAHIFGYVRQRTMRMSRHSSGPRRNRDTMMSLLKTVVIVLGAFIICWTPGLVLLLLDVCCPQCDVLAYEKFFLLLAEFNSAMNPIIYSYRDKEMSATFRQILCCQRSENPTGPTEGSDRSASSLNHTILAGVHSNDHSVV
In words: LPA1 functional antagonist assay (LPA-induced calcium flux in CHO cells overexpressing human LPA1). Type of assay: cell-based. The conditions noted are these: inhibition of calcium flux induced by 10 nM LPA, CHO cells overexpressing human LPA1; read-out: hLPA1 IC50. The method, boiled down: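 CHO cells overexpressing human LPA1, dye-loaded 30 min at 37 °C, then given compound (0.08 nM–5 μM final, 0.5% DMSO) in HBSS/20 mM HEPES/0.1% fatty-acid-free BSA for 20 min at room temperature before 10 nM LPA. IC50 as 50% inhibition of LPA-evoked calcium flux, 4-parameter logistic fit.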
Turning to `Cc1nc(-c2nnn(C)c2Cn2nnnc2C2CCC2)ccc1O[C@H]1CCC[C@H](C(=O)O)C1` [Example 354, (1S,3S)-3-[(6-{5-[(5-cyclobutyl-1H-1,2,3,4-tetrazol-1-yl)methyl]-1-methyl-1H-1,2,3-triazol-4-yl}-2-methylpyridin-3-yl)oxy]cyclo-hexane-1-carboxylic acid], the 50% inhibitory concentration (IC50) turned out to be 226 nM.
The same measure, in the same setting: to `CC(C)c1nc(NCc2c(-c3ccc(O[C@H]4CCC[C@H](C(=O)O)C4)cn3)nnn2C)ns1` [Example 137] belongs 320 nM.
On the same count and under the same terms, in the case of `COCCCc1nc(NCc2c(-c3ccc(O[C@H]4CCC[C@H](C(=O)O)C4)c(C)n3)nnn2C)no1` [Example 146] it was 103 nM.
Still for that read-out and setting: to `Cc1nc(-c2nnn(C)c2Cn2nnc(OC3CCCC3)n2)ccc1O[C@H]1CCC[C@@H](C(=O)O)C1` [Example 337, (1R,3S)-3-{[6-(5-{[5-(cyclopentyloxy)-2H-1,2,3,4-tetrazol-2-yl]methyl}-1-methyl-1H-1,2,3-triazol-4-yl)-2-methylpyridin-3-yl]oxy}cyclohexane-1-carboxylic acid] belongs 546 nM.
As for `CSc1nnn(Cc2c(-c3ccc(O[C@H]4CCC[C@H](C(=O)O)C4)c(C)n3)nnn2C)n1` [Example 353, (1S,3S)-3-{[2-methyl-6-(1-methyl-5-{[5-(methylsulfanyl)-2H-1,2,3,4-tetrazol-2-yl]methyl}-1H-1,2,3-triazol-4-yl)pyridin-3-yl]oxy}cyclohexane-1-carboxylic acid], the half-inhibitory concentration (IC50) is 800 nM.
Still for that read-out and setting: in the case of `Cc1nc(-c2nnn(C)c2Cn2nnc(C3CCC3)n2)ccc1O[C@H]1CCC[C@H](C(=O)O)C1` [Example 355, (1S,3S)-3-[(6-{5-[(5-cyclobutyl-2H-1,2,3,4-tetrazol-2-yl)methyl]-1-methyl-1H-1,2,3-triazol-4-yl}-2-methylpyridin-3-yl)oxy]cyclohexane-1-carboxylic acid] it was 32 nM.
On the same count and under the same terms, in the case of `Cc1nc(-c2nnn(C)c2CNc2noc(Cc3ccccc3)n2)ccc1O[C@H]1CCC[C@H](C(=O)O)C1` [Example 67] it was 14 nM; in that of `CC(C)c1nc(NCc2c(-c3ccc(O[C@H]4CCC[C@H](C(=O)O)C4)cn3)nnn2C)no1` [Example 293, (1S,3S)-3-((6-(5-(((5-isopropyl-1,2,4-oxadiazol-3-yl)amino)methyl)-1-methyl-1H-1,2,3-triazol-4-yl)pyridin-3-yl)oxy)cyclohexane-1-carboxylic acid], 613 nM; in that of `Cc1nc(-c2nnn(C)c2Cn2cc(COc3ccccc3)nn2)ccc1O[C@H]1CCC[C@H](C(=O)O)C1` [Example 83], 135 nM.
The same measure, in the same setting: in the case of `CCCn1ncc(NCc2c(-c3ccc(O[C@H]4CCC[C@H](C(=O)O)C4)c(C)n3)nnn2C)n1` [Example 29] it was 297 nM; in that of `Cc1sc(NCc2c(-c3ccc(O[C@H]4CCC[C@H](C(=O)O)C4)cn3)nnn2C)nc1-c1ccccn1` [Example 98], 1050 nM; in that of `Cc1nc(-c2nnn(C)c2Cn2sc(C3CC3)nc2=N)ccc1O[C@H]1CCC[C@H](C(=O)O)C1` [Example 274, (1 S,3 S)-3-((6-(5-((5-cyclopropyl-3-imino-1,2,4-thiadiazol-2(3H)-yl)methyl)-1-methyl-1H-1,2,3-triazol-4-yl)-2-methylpyridin-3-yl)oxy)cyclohexane-1-carboxylic acid], 1000 nM.
For `Cc1nc(-c2nnn(C)c2CNc2nc(CC(C)C)ns2)ccc1O[C@H]1CCC[C@H](C(=O)O)C1` [Example 102], the IC50 worked out at 98 nM.
Same read-out and setting: in the case of `CCCc1nnc(NCc2c(-c3ccc(O[C@H]4CCC[C@H](C(=O)O)C4)c(C)n3)nnn2C)s1` [Example 2, (1 S,3S)-3-((2-Methyl-6-(1-methyl-5-(((5-propyl-1,3,4-thiadiazol-2-yl)amino)methyl)-1H-1,2,3-triazol-4-yl)pyridin-3-yl)oxy)cyclohexanecarboxylic acid] it was 185 nM.
Same read-out and setting: to `Cc1nc(-c2nnn(C)c2CNc2noc(C(C)OC3CC3)n2)ccc1O[C@H]1CCC[C@H](C(=O)O)C1` (mixture of isomers) [Example 226, (1S,3S)-3-((6-(5-(((5-(1-cyclopro-poxyethyl)-1,2,4-oxadiazol-3-yl)amino)methyl)-1-methyl-1H-1,2,3-triazol-4-yl)-2-methylpyridin-3-yl)oxy)cyclohexane-1-carboxylic acid] belongs 123 nM; to `CCCCc1nc(NCc2c(-c3nc(C)c(O[C@H]4CCC[C@H](C(=O)O)C4)cc3F)nnn2C)no1` [Example 280, (1S,3S)-3-((6-(5-(((5-butyl-1,2,4-oxadiazol-3-yl)amino)methyl)-1-methyl-1H-1,2,3-triazol-4-yl)-5-fluoro-2-methylpyridin-3-yl)oxy)cyclohexane-1-carboxylic acid], 143 nM.
On the same count and under the same terms, in the case of `Cc1nc(-c2nnn(C)c2CNc2nc(C(F)(F)F)ns2)ccc1O[C@H]1CCC[C@H](C(=O)O)C1` [Example 119] it was 60 nM; in that of `CCCn1cnc(NCc2c(-c3ccc(O[C@H]4CCC[C@H](C(=O)O)C4)c(C)n3)nnn2C)n1` [Example 35], 309 nM.
For the compound `CCCc1nc(NCc2c(-c3ccc(O[C@H]4CCC[C@H](C(=O)O)C4)c(C)n3)nnn2C)no1` [Example 68], the concentration for half-maximal inhibition (IC50) was found to be 42 nM.
The same measure, in the same setting: in the case of `Cc1nc(-c2nnn(C)c2Cn2nnc(OCC3CC(F)(F)C3)n2)ccc1O[C@H]1CCC[C@H](C(=O)O)C1` [Example 338] it was 43 nM.
Still for that read-out and setting: to `Cc1nc(-c2nnn(C)c2Cn2nnnc2-c2ccccc2)ccc1O[C@H]1CCC[C@H](C(=O)O)C1` [Example 108] belongs 239 nM.
Same read-out and setting: in the case of `Cc1nc(-c2nnn(C)c2Cn2cc(Cc3ccccc3)nn2)ccc1O[C@H]1CCC[C@H](C(=O)O)C1` [Example 81] it was 37 nM.
Turning to `CC(C)Cc1nnnn1Cc1c(-c2ccc(O[C@H]3CCC[C@H](C(=O)O)C3)cn2)nnn1C` [Example 255, (1S,3S)-3-((6-(5-((5-isobutyl-1H-tetrazol-1-yl)methyl)-1-methyl-1H-1,2,3-triazol-4-yl)pyridin-3-yl)oxy)cyclohexane-1-carboxylic acid], the IC50 was found to be 237 nM.
Still for that read-out and setting: to `Cc1nc(-c2nnn(C)c2CNc2ncn(-c3ccccc3)n2)ccc1O[C@H]1CCC[C@H](C(=O)O)C1` [Example 38] belongs 34 nM; to `Cc1nc(-c2nnn(C)c2CNc2nc(-c3ccccc3)c(F)s2)ccc1O[C@H]1CCC[C@H](C(=O)O)C1` [Example 21, (1 S,3 S)-3-((6-(5-(((5-fluoro-4-phenylthiazol-2-yl)amino)methyl)-1-methyl-1H-1,2,3-triazol-4-yl)-2-methylpyridin-3-yl)oxy)cyclohexane-1-carboxylic acid], 18 nM; to `Cc1nc(-c2nnn(C)c2CNc2nsc(Nc3ccccc3)n2)ccc1O[C@H]1CCC[C@H](C(=O)O)C1` [Example 121], 470 nM.
The same measure, in the same setting: to `Cc1nc(-c2nnn(C)c2CNc2nc(CC3CCC3)no2)ccc1O[C@H]1CCC[C@H](C(=O)O)C1` [Example 156] belongs 29 nM.
On the same count and under the same terms, in the case of `Cc1nc(-c2nnn(C)c2Cc2nc(CCC(C)C)no2)ccc1O[C@H]1CCC[C@H](C(=O)O)C1` [Example 241, (1 S,3 S)-3-((6-(5-((3-isopentyl-1,2,4-oxadiazol-5-yl)methyl)-1-methyl-1H-1,2,3-triazol-4-yl)-2-methylpyridin-3-yl)oxy)cyclohexane-1-carboxylic acid] it was 33 nM.
Turning to `Cc1nc(-c2nnn(C)c2Cn2cnc(-c3ccccc3)n2)ccc1O[C@H]1CCC[C@H](C(=O)O)C1` [Example 208, (1S,3S)-3-((2-Methyl-6-(1-methyl-5-((3-phenyl-1H-1,2,4-triazol-1-yl)methyl)-1H-1,2,3-triazol-4-yl)pyridin-3-yl)oxy)cyclohexane-1-carboxylic acid], the concentration for half-maximal inhibition (IC50) is 370 nM.
With `CCCCc1nnn(Cc2c(-c3ccc(O[C@H]4CCC[C@H](C(=O)O)C4)c(C)n3)nnn2C)n1` [Example 111], the IC50 was 34 nM.
Take `Cc1nc(-c2nnn(C)c2CNc2nnn(-c3ccc(Cl)cc3)n2)ccc1O[C@H]1CCC[C@H](C(=O)O)C1` [Example 384, (1S,3S)-3-((6-(5-(((2-(4-chloro-phenyl)-2H-tetrazol-5-yl)amino)methyl)-1-methyl-1H-1,2,3-triazol-4-yl)-2-methylpyridin-3-yl)oxy)cyclohexane-1-carboxylic acid]: the IC50 was determined as 41 nM.
Still for that read-out and setting: in the case of `Cc1nc(-c2nnn(C)c2Cc2nc(Cc3ccccc3)no2)ccc1O[C@H]1CCC[C@H](C(=O)O)C1` [Example 244, (1S,3S)-3-((6-(5-((3-benzyl-1,2,4-oxadiazol-5-yl)methyl)-1-methyl-1H-1,2,3-triazol-4-yl)-2-methylpyridin-3-yl)oxy)cyclohexane-1-carboxylic acid] it was 40 nM.
Take `Cc1nc(-c2nnn(C)c2Cn2nnnc2C2CCCC2)ccc1O[C@H]1CCC[C@H](C(=O)O)C1` [Example 330, (1S,3S)-3-((6-(5-((5-cyclopentyl-1H-tetrazol-1-yl)methyl)-1-methyl-1H-1,2,3-triazol-4-yl)-2-methylpyridin-3-yl)oxy)cyclo-hexane-1-carboxylic acid]: the half-inhibitory concentration (IC50) came to 385 nM.

The assay is the same for the next values; noted with them: read-out: hLPA1 IC50.
As for `COCCCn1nnc(Cc2c(-c3ccc(O[C@H]4CCC[C@H](C(=O)O)C4)c(C)n3)nnn2C)n1` [Example 401, (1S,3S)-3-{[6-(5-{[2-(3-methoxy-propyl)-2H-1,2,3,4-tetrazol-5-yl]methyl}-1-methyl-1H-1,2,3-triazol-4-yl)-2-methylpyridin-3-yl]oxy}cyclohexane-1-carboxylic acid], the IC50 amounted to 1120 nM.
On the same count and under the same terms, to `CCc1nc(-c2nnn(C)c2CNc2nc(CC(C)C)ns2)ccc1O[C@H]1CCC[C@H](C(=O)O)C1` [Example 395, (1S,3S)-3-((2-ethyl-6-(5-(((3-isobutyl-1,2,4-thiadiazol-5-yl)amino)methyl)-1-methyl-1H-1,2,3-triazol-4-yl)pyridin-3-yl)oxy)cyclohexane-1-carboxylic acid] belongs 22 nM.
